Measurements: patent US6033669A, “Methods for generating cytotoxic T cells and treatment of diseases thereby” (priority 1992, dated 2000)
Read-outs that look alike come from different tables or passages of the source.

Experiments:
[1] = biological target: T1, H-2D^b (Mus musculus, UniProt P01899); assay: MHC-1 upregulation on RMA-S cells (D^b); format: cell-based, murine; conditions: RMA-S cells with peptide NP366-374 (50 μM), 6 h; FIG. 8
T1 sequence (P01899 25-362): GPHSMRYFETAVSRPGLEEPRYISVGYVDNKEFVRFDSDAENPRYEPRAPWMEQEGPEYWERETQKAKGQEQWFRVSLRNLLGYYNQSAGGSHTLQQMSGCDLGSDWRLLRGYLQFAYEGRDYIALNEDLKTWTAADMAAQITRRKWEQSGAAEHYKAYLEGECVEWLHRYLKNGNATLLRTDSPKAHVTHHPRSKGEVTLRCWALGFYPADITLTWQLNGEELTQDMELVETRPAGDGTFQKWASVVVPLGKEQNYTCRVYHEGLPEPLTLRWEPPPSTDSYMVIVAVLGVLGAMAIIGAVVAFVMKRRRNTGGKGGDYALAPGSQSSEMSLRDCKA
T1 sequence (P01887 21-119 partner): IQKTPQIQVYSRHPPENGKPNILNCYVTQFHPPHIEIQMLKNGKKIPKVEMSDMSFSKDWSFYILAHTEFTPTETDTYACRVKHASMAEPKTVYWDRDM

[2] = system: RMA-S cells; assay: Membrane recycling of glycopeptide after pronase treatment; format: cell-based; conditions: pronase treated RMA-S cells, 37° C.; data not shown
Description: Panel A: RMA-s cells were incubated for 24 hours at 26° C. to induce expression of empty D^b MHC-1 chains at the cell surface, and at 37° C., and stained for D^b expression. Panel B: Removal of D^b expression by pronase treatment of RMA-S cells, preincubated at 26° C. Pronase treatment for 2 h and 4 h. D^b removal is complete at 4 h. Panels C and E: 26° C. induced RMA-S cells were treated with the glycopeptides Gal2 -CSG11 (panel C) or Gal2 CAS10 (panel E), 300 μM for 2 h at 37° C., washed and stained for Gal2 expression. Panels D and F: Glycopeptide treated RMA-S cells as in panels C and E were pronase treated to remove Db and glycopeptide expression, washed and further incubated at 37° C. to allow re-expression of glycopeptides and stained for Gal2 expression.
The capacity of the conjugate to be recycled may be assessed by incubating the cells (with bound conjugate) at 37° C. whereupon the glycopeptide will internalise. The temperature may then be lowered and the cells treated with a proteolytic enzyme (e.g. Pronase) to strip off exposed peptide/carbohydrate conjugate. On reheating, recycled conjugate may be detected by probing for the Gal2 epitope using the anti-Gal2 antibody.
Described in FIGS. 10D and F.

[3] = system: EL4 and RMA-S cells; format: cell-based, mice
[4] = system: pep 9(PR8)-coated RMA target cells; assay: Kinetics of CTL activity after one s.c. injection of peptide (51Cr release); format: in vivo, mice; conditions: primed once with 100 μg
[5] = system: EL4 target cells
[6] = 100 μg s.c., restimulated with 5 μM in vitro
[7] = priming 1 μg, restimulation 0.05 μM, effector:target 20:1
[8] = priming 1 μg, restimulation 0.05 μM, effector:target 40:1
[9] = priming 1 μg, restimulation 5.00 μM, effector:target 20:1
[10] = priming 1 μg, restimulation 5.00 μM, effector:target 40:1
[11] = priming 10 μg, restimulation 0.05 μM, effector:target 20:1
[12] = priming 10 μg, restimulation 0.05 μM, effector:target 40:1
[13] = priming 10 μg, restimulation 5.00 μM, effector:target 20:1
[14] = priming 10 μg, restimulation 5.00 μM, effector:target 40:1
[15] = priming 100 μg, restimulation 0.05 μM, effector:target 20:1
[16] = priming 100 μg, restimulation 0.05 μM, effector:target 40:1
[17] = priming 100 μg, restimulation 5.00 μM, effector:target 20:1
[18] = priming 100 μg, restimulation 5.00 μM, effector:target 40:1

## CCN(CC)CCCC(C)Nc1ccnc2cc(Cl)ccc12 (stereo not shown) [chloroquine]
[1]
  effect on peptide mediated MHC-1 (H-2D^b) upregulation: inhibits this upregulation
[2]
  effect on return of the Gal2 epitope to the cell surface: inhibited
[3]; pronase treated peptide-coated cells incubated at 37° C., data not shown
  effect on return of susceptibility to CTL killing: blocked

## ASNENMETM [pep 9(PR8)]
[4]
  CTL activity at day 30 after priming: lower level of CTL activity could still be detected
[4]; restimulated with 5 μM, effector:target 60:1
  time of peak CTL activity after the immunization: 7 days
[3]; FIG. 11
  killing of peptide treated RMA-S and EL-4 target cells by influenza A (PR8) specific CTL: strongly killed
[5]; [6]
  CTL response against pep 9(PR8)-coated RMA and EL4 cells: strong CTL response
  killing of virus-infected target cells: not killed
[5]; FIG. 7a
  lysis of pep 9(PR8)-coated EL4 cells by CTL depleted for CD8^+ T cells: failed to lyse
[5]; FIG. 7a, pep 9(PR8)-coated target cells
  effect of depletion of CD4^+ T cells on cytolytic activity: did not affect the cytolytic activity
[5]; immunization with 10 μg and 1 μg
  CTL response: less or even no CTL response
[5]; mouse, in vivo
  MHC restriction of peptide-induced cytotoxicity: H-2D^b restricted
  specificity of induced CTL: preferentially killed their corresponding peptide-coated and virus-infected cells
[5]; [7]
  EL4 target lysis (%) PR8-infected: 10.50%
  EL4 target lysis (%) Untreated: 3.32%
  EL4 target lysis (%) pep9(PR8)-coated: 15.54%
[5]; [8]
  EL4 target lysis (%) PR8-infected: 12.43%
  EL4 target lysis (%) Untreated: 4.08%
  EL4 target lysis (%) pep9(PR8)-coated: 16.44%
[5]; [9]
  EL4 target lysis (%) PR8-infected: 5.54%
  EL4 target lysis (%) Untreated: 2.66%
  EL4 target lysis (%) pep9(PR8)-coated: 9.28%
[5]; [10]
  EL4 target lysis (%) PR8-infected: 6.88%
  EL4 target lysis (%) Untreated: 3.34%
  EL4 target lysis (%) pep9(PR8)-coated: 11.85%
[5]; [11]
  EL4 target lysis (%) PR8-infected: 23.75%
  EL4 target lysis (%) Untreated: 4.14%
  EL4 target lysis (%) pep9(PR8)-coated: 34.60%
[5]; [12]
  EL4 target lysis (%) PR8-infected: 31.19%
  EL4 target lysis (%) Untreated: 5.74%
  EL4 target lysis (%) pep9(PR8)-coated: 45.52%
[5]; [13]
  EL4 target lysis (%) PR8-infected: 13.98%
  EL4 target lysis (%) Untreated: 4.19%
  EL4 target lysis (%) pep9(PR8)-coated: 22.09%
[5]; [14]
  EL4 target lysis (%) PR8-infected: 15.04%
  EL4 target lysis (%) Untreated: 5.63%
  EL4 target lysis (%) pep9(PR8)-coated: 23.54%
[5]; [15]
  EL4 target lysis (%) PR8-infected: 30.07%
  EL4 target lysis (%) Untreated: 0.51%
  EL4 target lysis (%) pep9(PR8)-coated: 50.73%
[5]; [16]
  EL4 target lysis (%) PR8-infected: 30.76%
  EL4 target lysis (%) Untreated: 0.12%
  EL4 target lysis (%) pep9(PR8)-coated: 59.42%
[5]; [17]
  EL4 target lysis (%) PR8-infected: 8.50%
  EL4 target lysis (%) Untreated: 4.21%
  EL4 target lysis (%) pep9(PR8)-coated: 34.73%
[5]; [18]
  EL4 target lysis (%) PR8-infected: 7.00%
  EL4 target lysis (%) Untreated: 4.61%
  EL4 target lysis (%) pep9(PR8)-coated: 43.68%
